Test results from ChEMBL document CHEMBL1157284, “Role of glutamate and dopamine receptors in the psychopharmacological profile of the indole alkaloid psychollatine” (2006).
Activity calls are given as the source filed them. The calls are words filed in the database; no cut-off is given here.

Columns and labels:
[1] = test system: Mus musculus; assay: Protective effect against amphetamine-induced lethality in mouse at 4 mg/kg, ip administered 30 mins prior to amphetamine challenge measured after 24 hrs; type: functional, organism-based; set-up: dose 4 mg/kg
[2] = test system: Mus musculus; assay: Anticonvulsant activity against NMDA-induced seizures in mouse assessed as seizure latency at 0.3 mg/kg, ip administered 30 mins prior to NMDA challenge; type: functional; settings: route intraperitoneal
[3] = test system: Mus musculus; assay: Inhibition of apomorphine-induced climbing behavior in mouse at 0.2 mg/kg, ip administered 30 mins prior to apomorphine challenge; type: functional, organism-based; set-up: dose 0.2 mg/kg
[4] = test system: Mus musculus; assay: Protective effect against amphetamine-induced lethality in mouse at 3 mg/kg, ip administered 30 mins prior to amphetamine challenge measured after 24 hrs; type: functional, organism-based; set-up: dose 3 mg/kg
[5] = test system: Mus musculus; assay: Decrease in spontaneous locomotor activity in mouse at 7.5 mg/kg; type: functional, organism-based; set-up: dose 7.5 mg/kg
[6] = test system: Mus musculus; assay: Anticonvulsant activity against NMDA-induced seizures in mouse assessed as seizure latency at 75 mg/kg, ip administered 30 mins prior to NMDA challenge; type: functional; settings: route intraperitoneal
[7] = test system: Mus musculus; assay: Protective effect against amphetamine-induced lethality in mouse at 30 mg/kg, ip administered 30 mins prior to amphetamine challenge measured after 24 hrs; type: functional, organism-based; set-up: dose 30 mg/kg
[8] = test system: Mus musculus; assay: Antipsychotic activity against MK-801-induced hyperlocomotion in mouse at 100 mg/kg administered 30 mins prior to MK-801 challenge measured after 30 mins; type: functional, organism-based; set-up: dose 100 mg/kg
[9] = test system: Mus musculus; assay: Anticonvulsant activity against NMDA-induced seizures in mouse assessed as seizure latency at 100 mg/kg, ip administered 30 mins prior to NMDA challenge; type: functional; settings: route intraperitoneal
[10] = test system: Mus musculus; assay: Protective effect against amphetamine-induced lethality in mouse at 10 mg/kg, ip administered 30 mins prior to amphetamine challenge measured after 24 hrs; type: functional, organism-based; set-up: dose 10 mg/kg
[11] = test system: Mus musculus; assay: Anticonvulsant activity against NMDA-induced seizures in mouse assessed as seizure latency at 50 mg/kg, ip administered 30 mins prior to NMDA challenge; type: functional; settings: route intraperitoneal
[12] = test system: Mus musculus; assay: Decrease in spontaneous locomotor activity in mouse at 100 mg/kg; type: functional, organism-based; set-up: dose 100 mg/kg
[13] = test system: Mus musculus; assay: Protective effect against amphetamine-induced lethality in mouse at 100 mg/kg, ip administered 30 mins prior to amphetamine challenge measured after 24 hrs; type: functional, organism-based; set-up: dose 100 mg/kg
[14] = test system: Mus musculus; assay: Decrease in spontaneous locomotor activity in mouse at 10 mg/kg; type: functional, organism-based; set-up: dose 10 mg/kg
[15] = test system: Mus musculus; assay: Inhibition of apomorphine-induced climbing behavior in mouse at 10 mg/kg, ip administered 30 mins prior to apomorphine challenge; type: functional, organism-based; set-up: dose 10 mg/kg
[16] = test system: Mus musculus; assay: Antipsychotic activity against MK-801-induced hyperlocomotion in mouse at 7.5 mg/kg administered 30 mins prior to MK-801 challenge measured after 30 mins; type: functional, organism-based; set-up: dose 7.5 mg/kg
[17] = test system: Mus musculus; assay: Antipsychotic activity against MK-801-induced hyperlocomotion in mouse at 10 mg/kg administered 30 mins prior to MK-801 challenge measured after 30 mins; type: functional, organism-based; set-up: dose 10 mg/kg

CN(C)CCCN1c2ccccc2Sc2ccc(Cl)cc21
Activity [1]: Active

CN1C(=O)CN=C(c2ccccc2)c2cc(Cl)ccc21
Activity [1]: inactive

C[C@]12N[C@H](Cc3ccccc31)c1ccccc12.O=C(O)/C=C\C(=O)O [DIZOCILPINE MALEATE]
Activity [2]: 360 s
Activity [3]: Active

COC(=O)C1=CO[C@@H](O[C@H]2O[C@H](CO)[C@@H](O)[C@H](O)[C@H]2O)[C@@H]2C([C@@H]3NCCc4c3[nH]c3ccccc43)=CC[C@H]12 [PSYCHOLLATINE]
Activity [4]: Active
Activity [5]: inactive
Activity [6]: 1020 s
Activity [7]: inactive
Activity [8]: Active
Activity [9]: 857.14 s
Activity [10]: Active
Activity [11]: 850 s
Activity [12]: Active
Activity [13]: inactive
Activity [14]: inactive
Activity [15]: Active
Activity [16]: Active
Activity [17]: Active
